Reference: PMC12396409, “Screening and hit evaluation of a microbial metabolite library against the pathogenic Plasmodium falciparum and Toxoplasma gondii parasites” (International Journal for Parasitology: Drugs and Drug …, 2025)
Structures can show the parent of a compound that is named as a salt. Where two headings read alike, the source gives them in different places.

Experiments:
[1] = tested on: P. falciparum 3D7 parasites; test: P. falciparum growth inhibition assay, 2-cycle (120 h treatment), delayed-death screen and dose-response; type: cell-based, Plasmodium falciparum
[2] = tested on: T. gondii RH strain (RH-Tub-eYFP) tachyzoites; test: microbe, parasite or virus in culture; type: cell-based, Toxoplasma gondii
[3] = tested on: P. falciparum 3D7 parasites; test: P. falciparum growth inhibition assay, 1-cycle (72 h treatment), SYBR DNA staining (library screen at 2 μg/mL and dose-response); type: cell-based, Plasmodium falciparum
[4] = P. falciparum 3D7, 120 h, parasite screen at 2 μg/mL, % growth, replicate 1
[5] = P. falciparum 3D7, 120 h, parasite screen at 2 μg/mL, % growth, replicate 2
[6] = T. gondii, 72 h, parasite screen at 2 μg/mL, % growth, replicate 1
[7] = T. gondii, 72 h, parasite screen at 2 μg/mL, % growth, replicate 2
[8] = P. falciparum 3D7, 72 h, parasite screen at 2 μg/mL, % growth, replicate 1
[9] = P. falciparum 3D7, 72 h, parasite screen at 2 μg/mL, % growth, replicate 2
[10] = Plasmodium falciparum, 3D7, library screen at 2 μg/mL, 120 h, % growth, replicate 1, read-out: Pf_120h_%Growth_Rep1
[11] = Plasmodium falciparum, 3D7, library screen at 2 μg/mL, 120 h, % growth, replicate 2, read-out: Pf_120h_%Growth_Rep2
[12] = Toxoplasma gondii, 72 h, library screen at 2 μg/mL, 72 h, % growth, replicate 1; read-out: Tg_72h_%Growth_Rep1
[13] = Toxoplasma gondii, 72 h, library screen at 2 μg/mL, 72 h, % growth, replicate 2; read-out: Tg_72h_%Growth_Rep2
[14] = Plasmodium falciparum, 3D7, library screen at 2 μg/mL, 72 h, % growth, replicate 1, read-out: Pf_72h_%Growth_Rep1
[15] = Plasmodium falciparum, 3D7, library screen at 2 μg/mL, 72 h, % growth, replicate 2, read-out: Pf_72h_%Growth_Rep2

In the case of CCOC(=O)[C@H](Cc1ccccc1)NC(=O)c1cc(Cl)c2c(c1O)C(=O)O[C@H](C)C2 [BIA-O1589], the Pf_120h_%Growth_Rep1 [1, 4] is reported as 89.48%, the Pf_120h_%Growth_Rep2 [1, 5] is reported as 144.99% and the Tg_72h_%Growth_Rep1 [2, 6] is reported as 74.06%. The Tg_72h_%Growth_Rep2 [2, 7] was 66.00%, the Pf_72h_%Growth_Rep1 [3, 8] was 85.35% and the Pf_72h_%Growth_Rep2 [3, 9] was 104.78%.

COc1ccc2c(c1OC)C[N+]1(C)CCc3cc4c(cc3C1C2)OCO4.[I-] (centres unmarked) [BIA-M1962] showed a Pf_120h_%Growth_Rep1 [1, 4] of 5.27%, a Pf_120h_%Growth_Rep2 [1, 5] of 17.95% and a Tg_72h_%Growth_Rep1 [2, 6] of 93.48%. The Tg_72h_%Growth_Rep2 [2, 7] was 106.99%, the Pf_72h_%Growth_Rep1 [3, 8] was 14.79% and the Pf_72h_%Growth_Rep2 [3, 9] was 27.45%.

In the case of CC(=O)C1C(C)=CC(=O)c2c1c(-c1c3c(c(O)c4c(O)cccc14)C(=O)CC(C)(O)C3C(C)=O)c1cccc(O)c1c2O (centres unmarked) [Setomimycin], the Pf_120h_%Growth_Rep1 ([1]; P. falciparum, 120 h, parasite screen 2 μg/mL, % growth, replicate 1) is reported as 7.52%, the Pf_120h_%Growth_Rep2 ([1]; P. falciparum, 120 h, parasite screen 2 μg/mL, % growth, replicate 2) is reported as 6.30% and the Tg_72h_%Growth_Rep1 ([2]; T. gondii, 72 h, parasite screen 2 μg/mL, % growth, replicate 1) is reported as 70.47%. The Tg_72h_%Growth_Rep2 ([2]; T. gondii, 72 h, parasite screen 2 μg/mL, % growth, replicate 2) was 40.70%, the Pf_72h_%Growth_Rep1 ([3]; P. falciparum, 72 h, parasite screen 2 μg/mL, % growth, replicate 1) was 8.25% and the Pf_72h_%Growth_Rep2 ([3]; P. falciparum, 72 h, parasite screen 2 μg/mL, % growth, replicate 2) was 3.46%.

Cc1c2c(c(O)c3c(O)cccc13)C(=O)[C@]1(O)C(=O)C(C(N)=O)=C(O)[C@@H](N(C)C)[C@@H]1C2 [Anhydrotetracycline hydrochloride] gave an activity at 2 µg/mL [1, 10] of 52.2%, an activity at 2 µg/mL [1, 11] of 57% and a percent parasite growth at 2 µg/mL [2, 12] of 89.6%. It also gave a percent parasite growth at 2 µg/mL [2, 13] of 88.3%, an activity at 2 µg/mL [3, 14] of 77.2% and an activity at 2 µg/mL [3, 15] of 74%.

In the case of CC[C@]1(C)C[C@@H](OC(=O)CSc2nnc(N)[nH]2)[C@]2(C)[C@H](C)CC[C@]3(CCC(=O)[C@H]32)[C@@H](C)[C@@H]1O [Azamulin], the “delayed-death activity in the 120 h screen against P. falciparum” value ([1]; 2 μg/mL, criteria: ≥40 % growth at 72 h, ≤20 % growth at 120 h, at least 5-fold) is reported as “delayed-death activity”, the “3) Fold change (72 h/120 h)” value ([1]; P. falciparum, growth at 72 h / growth at 120 h, 2 μg/mL) is reported as 6.9 and the activity at 2 µg/mL ([1]; Plasmodium falciparum, 3D7; P. falciparum, 2 μg/mL, 120 h; read-out: 2) Growth (%) at 120 h) is reported as 8.89%. The activity at 2 µg/mL [1, 10] was 15.6%, the activity at 2 µg/mL [1, 11] was 2.17% and the percent parasite growth at 2 µg/mL [2, 12] was 65.2%. For the same compound, the percent parasite growth at 2 µg/mL [2, 13] was 70.7%, the “Screen (T. gondii)” value ([2]; library screen at 2 μg/mL, RH strain, 72 h) was “I” and the activity at 2 µg/mL ([3]; Plasmodium falciparum, 3D7; P. falciparum, 2 μg/mL, 72 h; read-out: 1) Growth (%) at 72 h) was 61.2%. For the same compound, the activity at 2 µg/mL [3, 14] was 59.3% and the activity at 2 µg/mL [3, 15] was 63.1%.

Compound C/C1=C\[C@H](C)C[C@H](C)[C@H](Cc2cnco2)OC(=O)/C(C)=C/CC[C@H](C)[C@H](Cc2cnco2)OC1=O [Conglobatin B] has a Pf_120h_%Growth_Rep1 ([1]; P. falciparum, 120 h, screen at 2 μg/mL, replicate 1) of 80.47%, a Pf_120h_%Growth_Rep2 ([1]; P. falciparum, 120 h, screen at 2 μg/mL, replicate 2) of 86.62% and a Tg_72h_%Growth_Rep1 ([2]; T. gondii, 72 h, screen at 2 μg/mL, replicate 1) of 184.82%. For the same compound, the Tg_72h_%Growth_Rep2 ([2]; T. gondii, 72 h, screen at 2 μg/mL, replicate 2) was 99.16%, the Pf_72h_%Growth_Rep1 ([3]; P. falciparum, 72 h, screen at 2 μg/mL, replicate 1) was 81.21% and the Pf_72h_%Growth_Rep2 ([3]; P. falciparum, 72 h, screen at 2 μg/mL, replicate 2) was 81.29%.

CN1C(=O)[C@@]23C[C@]4([C@]56C[C@@]78SS[C@@](CO)(C(=O)N7[C@H]5Nc5ccccc56)N(C)C8=O)c5ccccc5N[C@@H]4N2C(=O)[C@]1(CO)SS3 [Chaetocin] gave an activity at 2 µg/mL ([1]; Plasmodium falciparum, 3D7, 120 h, P. falciparum, 120 h, screen at 2 μg/mL, replicate 1, read-out: Pf_120h_%Growth_Rep1) of 16.4%, an activity at 2 µg/mL ([1]; Plasmodium falciparum, 3D7, 120 h, P. falciparum, 120 h, screen at 2 μg/mL, replicate 2, read-out: Pf_120h_%Growth_Rep2) of 23.8% and a percent parasite growth at 2 µg/mL ([2]; Toxoplasma gondii, 72 h, T. gondii, 72 h, screen at 2 μg/mL, replicate 1; read-out: Tg_72h_%Growth_Rep1) of 0.84%. For the same compound, the percent parasite growth at 2 µg/mL ([2]; Toxoplasma gondii, 72 h, T. gondii, 72 h, screen at 2 μg/mL, replicate 2; read-out: Tg_72h_%Growth_Rep2) was 2.33%, the activity at 2 µg/mL ([3]; Plasmodium falciparum, 3D7, 72 h, P. falciparum, 72 h, screen at 2 μg/mL, replicate 1, read-out: Pf_72h_%Growth_Rep1) was 10.9% and the activity at 2 µg/mL ([3]; Plasmodium falciparum, 3D7, 72 h, P. falciparum, 72 h, screen at 2 μg/mL, replicate 2, read-out: Pf_72h_%Growth_Rep2) was 11.2%.

Work on CC(C)[C@@H]1NC(=O)[C@H](C)OC(=O)[C@@H](C(C)C)NC(=O)[C@@H](C(C)C)OC(=O)[C@H](C(C)C)NC(=O)[C@H](C)OC(=O)[C@@H](C(C)C)NC(=O)[C@@H](C(C)C)OC(=O)[C@H](C(C)C)NC(=O)[C@H](C)OC(=O)[C@@H](C(C)C)NC(=O)[C@@H](C(C)C)OC1=O [Valinomycin] yielded an activity at 2 µg/mL ([1]; Plasmodium falciparum, 3D7, P. falciparum, 120 h, screen at 2 μg/mL, replicate 1, read-out: Pf_120h_%Growth_Rep1) of 90.6%, an activity at 2 µg/mL ([1]; Plasmodium falciparum, 3D7, P. falciparum, 120 h, screen at 2 μg/mL, replicate 2, read-out: Pf_120h_%Growth_Rep2) of 101% and a percent parasite growth at 2 µg/mL ([2]; Toxoplasma gondii; T. gondii, 72 h, screen at 2 μg/mL, replicate 1; read-out: Tg_72h_%Growth_Rep1) of 122%. For the same compound, the percent parasite growth at 2 µg/mL ([2]; Toxoplasma gondii; T. gondii, 72 h, screen at 2 μg/mL, replicate 2; read-out: Tg_72h_%Growth_Rep2) was 85.6%, the activity at 2 µg/mL ([3]; Plasmodium falciparum, 3D7, P. falciparum, 72 h, screen at 2 μg/mL, replicate 1, read-out: Pf_72h_%Growth_Rep1) was 81% and the activity at 2 µg/mL ([3]; Plasmodium falciparum, 3D7, P. falciparum, 72 h, screen at 2 μg/mL, replicate 2, read-out: Pf_72h_%Growth_Rep2) was 123%.
